In the supplement of paper PMC10307832:

Key:
Assay in all cases: relative viability (nuclei count vs DMSO), 5 days (fraction); higher = more cells survive
[1] = compound: CC1=CC=C(C=C1)C(=O)CN2C3=C(CCCC3)SC2=N [Pifithrin_alpha] + CC(C)C[C@H](NC(=O)[C@H](Cc1ccccc1)NC(=O)c1cnccn1)B(O)O [Bortezomib] (partner 0.002 µM)
Method in brief: (§1)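 Medians of duplicate plates are given as relative viability. That measure is the nuclei count in treated wells divided by the count in vehicle wells. Counts were taken on 4× images of lung cancer cell lines in 1536-well plates, 5 days after pin-tool dosing the day after seeding with one drug alone or a fixed anchor-drug dose plus five library-drug doses (not always all listed) in √10 steps.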

[2] = compound: CC1=CC=C(C=C1)C(=O)CN2C3=C(CCCC3)SC2=N [Pifithrin_alpha] + C[C@@H](Oc1cc(-c2cnn(C3CCNCC3)c2)cnc1N)c1c(Cl)ccc(F)c1Cl [Crizotinib] (partner 1 µM)
Method in brief: as §1

Axitinib + Decitabine = compound: CNC(=O)c1ccccc1Sc1ccc2c(/C=C/c3ccccn3)n[nH]c2c1 [Axitinib] + Nc1ncn([C@H]2C[C@H](O)[C@@H](CO)O2)c(=O)n1 [Decitabine] (partner 2 µM)
Method in brief: as §1

Bemcentinib + Luminespib = compound: Nc1nc(Nc2ccc3c(c2)CC[C@@H](N2CCCC2)CC3)nn1-c1cc2c(nn1)-c1ccccc1CCC2 [Bemcentinib] + CCNC(=O)c1noc(-c2cc(C(C)C)c(O)cc2O)c1-c1ccc(CN2CCOCC2)cc1 [Luminespib] (partner 0.01 µM)
Method in brief: as §1

| Cell Line | relative viability ([1]; first compound 1 µM) | relative viability ([1]; first compound 3.162 µM) | relative viability ([1]; first compound 10 µM) | relative viability ([1]; first compound 100 µM) | relative viability ([2]; first compound 1 µM) | relative viability ([2]; first compound 3.162 µM) | relative viability ([2]; first compound 10 µM) | relative viability ([2]; first compound 100 µM) | relative viability (Axitinib + Decitabine; first compound 0.005 µM) | relative viability (Axitinib + Decitabine; first compound 0.01581 µM) | relative viability (Axitinib + Decitabine; first compound 0.05 µM) | relative viability (Axitinib + Decitabine; first compound 0.1581 µM) | relative viability (Axitinib + Decitabine; first compound 0.5 µM) | relative viability (Bemcentinib + Luminespib; first compound 0.04 µM) | relative viability (Bemcentinib + Luminespib; first compound 0.1265 µM) | relative viability (Bemcentinib + Luminespib; first compound 0.4 µM) | relative viability (Bemcentinib + Luminespib; first compound 1.265 µM) | relative viability (Bemcentinib + Luminespib; first compound 4 µM) | relative viability ([1]; first compound 31.62 µM) | relative viability ([2]; first compound 31.62 µM) |
| --- | --- | --- | --- | --- | --- | --- | --- | --- | --- | --- | --- | --- | --- | --- | --- | --- | --- | --- | --- | --- |
| NCI-H1915 | 0.947 | 1.15 | 0.904 | 1.35 | 0.867 | 0.979 | 0.912 | 1.25 | 0.249 | 0.254 | 0.239 | 0.267 | 0.262 | 0.861 | 0.974 | 0.9 | 0.899 | 0.89 |  |  |
| NCI-H2023 | 0.724 | 0.86 | 0.856 | 0.669 | 0.505 | 0.501 | 0.381 | 0.37 | 0.209 | 0.243 | 0.238 | 0.219 | 0.226 | 0.839 | 0.695 | 1.02 | 0.864 | 0.657 | 0.408 | 0.3 |
| NCI-H3122 | 1.03 | 0.99 | 1.05 | 1 | 0.288 | 0.323 | 0.291 | 0.321 | 0.42 | 0.445 | 0.448 | 0.451 | 0.51 |  | 0.0968 | 0.102 | 0.0892 | 0.0707 | 0.904 | 0.296 |
| NCI-H1650 | 0.182 | 0.202 | 0.18 | 0.169 | 0.979 | 0.912 | 0.936 | 0.792 | 0.441 | 0.31 | 0.434 | 0.381 | 0.406 | 0.207 | 0.237 | 0.199 | 0.236 | 0.186 | 0.189 | 0.648 |
| NCI-H441 | 0.245 | 0.821 | 0.442 | 0.503 | 0.718 | 0.739 | 0.806 | 0.826 | 0.233 | 0.217 | 0.253 | 0.21 | 0.27 | 0.354 | 0.485 | 0.303 | 0.469 | 0.321 | 0.448 | 0.56 |
| NCI-H2087 | 0.733 | 0.768 | 0.941 | 1.02 | 0.95 | 0.796 | 0.818 | 0.895 | 0.289 | 0.254 | 0.22 | 0.186 | 0.293 | 0.142 | 0.15 | 0.187 | 0.219 | 0.185 | 0.489 | 0.706 |
| RERF-LC-KJ | 0.798 | 0.855 | 1.07 | 0.721 | 0.824 | 0.69 | 0.754 | 0.659 | 0.663 | 0.694 | 0.67 | 0.596 | 0.738 | 1.45 | 1.23 | 1.24 | 1.17 | 1.1 | 1 | 0.696 |
| NCI-H1437 | 0.567 | 0.363 | 0.401 | 0.281 | 1.05 | 0.962 | 0.892 | 1.02 | 0.608 | 0.594 | 0.555 | 0.59 | 0.561 | 1.12 | 1.24 | 1.15 | 1.07 | 1.11 | 0.319 | 0.763 |
| NCI-H1651 | 0.857 | 0.929 | 0.916 | 1.02 | 0.942 | 0.924 | 0.934 | 0.959 | 0.576 | 0.579 | 0.611 | 0.619 | 0.594 | 0.967 | 0.757 | 1.05 | 0.79 | 0.977 | 0.88 | 0.835 |
| PC-14 | 0.821 | 0.829 | 0.964 | 0.882 | 0.998 | 0.827 | 0.741 | 0.703 | 0.239 | 0.219 | 0.231 | 0.203 | 0.194 | 0.132 | 0.137 | 0.186 | 0.159 | 0.132 | 0.888 | 0.699 |
| NCI-H1792 | 0.719 | 0.847 | 0.666 | 0.795 | 0.869 | 0.821 | 0.798 | 0.573 | 0.527 | 0.508 | 0.429 | 0.533 | 0.575 | 0.578 | 0.482 | 0.64 | 0.489 | 0.486 | 0.582 | 0.612 |
| NCI-H1666 | 0.635 | 0.472 | 0.465 | 0.28 | 0.665 | 0.63 | 0.549 | 0.316 | 0.751 | 0.747 | 0.731 | 0.73 | 0.75 | 1.05 | 1.07 | 0.993 | 0.956 | 0.955 | 0.404 | 0.474 |
| NCI-H661 | 0.784 | 0.82 | 0.909 | 1.02 | 1.16 | 0.93 | 0.908 | 0.988 | 0.594 | 0.503 | 0.588 | 0.549 | 0.597 | 0.87 | 0.961 | 0.895 | 0.963 | 0.987 | 0.925 | 1.17 |
| HCC-44 | 0.916 | 0.851 | 0.793 | 0.652 | 0.816 | 0.742 | 0.647 | 0.65 | 0.974 | 0.919 | 0.937 | 0.956 | 0.872 | 1.05 | 1.4 | 1.02 | 1.06 | 1.05 | 0.68 | 0.515 |
| PC-3 [JPC-3] | 0.819 | 0.877 | 0.77 | 0.613 | 0.98 | 0.998 | 0.884 | 0.849 | 0.865 |  | 0.826 | 0.889 | 0.824 | 0.722 | 0.695 | 0.712 | 0.69 | 0.674 | 0.583 | 0.814 |
| LC-2-ad | 0.892 | 1.04 | 0.976 | 0.768 |  | 0.505 | 0.425 | 0.473 | 0.829 | 0.776 | 0.855 | 0.804 | 0.779 | 0.997 | 1.11 | 1.03 | 0.935 | 0.905 | 0.767 |  |
